For data set [1] the following is noted: prior art reports; cited from earlier work.
Data set [2] can be described thus: Hygroscopicity / water sorption of lactitol crystals. In kind it is physicochemical. As to the method: The water sorption of a sample of β crystals was less than about 0.3% of water in 45 days even when the relative humidity of the ambient air was 75% at 40° C.
Data set [3] in a line: Storability of crystals at room temperature. Type of data set: physicochemical. To be noted: room temperatures, relative humidity below 60%. The text has this: The new crystalline orthorhombic anhydrous lactitol β has a good flowability and storability, since it is stable at room temperatures, the relative humidity being below 60%.
Data set [4] is described as follows: Crystal form after milling (DSC, X-ray powder diffraction). The following applies: laboratory hammer mill, 10 g/min, 600 rpm. In kind it is physicochemical. As to the method:
Good quality anhydrous β lactitol crystals (lactitol assay 99.9%, enthalpy 169.4±0.5 J/g) was milled with a small laboratory hammer mill (Culatti). The feed rate was 10 g/min and the hammer speed 600 rpm. Fine lactitol particles were obtained.

Where two headings read alike, the source gives them in different places.

Turning to `OC[C@@H](O)[C@@H](O[C@@H]1O[C@H](CO)[C@H](O)[C@H](O)[C@H]1O)[C@H](O)[C@@H](O)CO` [A1 anhydrous lactitol, lactitol], in data set [1], the hygroscopicity result is reported as “hygroscopic”.
For `OC[C@@H](O)[C@@H](O[C@@H]1O[C@H](CO)[C@H](O)[C@H](O)[C@H]1O)[C@H](O)[C@@H](O)CO` [anhydrous lactitol β, lactitol], the hygroscopicity result in data set [2] is “very low hygroscopicity”; in data set [2] (25° C. and 60% relative humidity), “very low hygroscopicity”; in data set [2] (40° C. and 75% relative humidity), “very low hygroscopicity”. Moreover, in data set [2] (40° C., 75% relative humidity, 45 days), the water sorption entry is “less than 0.3%”. The stability / storability entry in data set [3] was “stable”. In data set [4], the “crystal form after milling” value is recorded as “still in the anhydrous β form”.
As for `OC[C@@H](O)[C@@H](O[C@@H]1O[C@H](CO)[C@H](O)[C@H](O)[C@H]1O)[C@H](O)[C@@H](O)CO` [lactitol anhydride], the hygroscopicity result in data set [1] is given as “highly hygroscopic”.
In the case of `OC[C@@H](O)[C@@H](O[C@@H]1O[C@H](CO)[C@H](O)[C@H](O)[C@H]1O)[C@H](O)[C@@H](O)CO` [α lactitol, lactitol], the hygroscopicity entry in data set [1] is reported as “low hygroscopicity”.

Source of the values: patent publication US6872414B1, “Anhydrous lactitol crystals, a product containing the same and a process for the preparation thereof as well as use thereof” (Xyrofin Oy, priority 1999, dated 2005).
